Source: patent US9346798B2, “Dihydrobenzoxazine and tetrahydroquinoxaline sodium channel inhibitors” (AMGEN INC., priority 2012, dated 2016)

Legend:
Format in all cases: cell-based
Nav 1.7 [1] = biological target: T1, Nav 1.7 (Homo sapiens (Human), UniProt Q15858); assay: Nav 1.7 in vitro PX assay, PatchXpress whole cell voltage clamp; details: HEK 293 cells stably transfected with human Nav1.7; for inhibition at 4.9 µM: HEK293, values marked *, read-out: Nav 1.7 PX percent inhibition at 4.9 μM; for IC50: partially inactivated state (20 to 50% inactivation)
In short: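 Partially inactivated channels (20–50% inactivation at holding potential) were probed on automated patch clamp in stably transfected HEK293 cells, stepping to −10 mV for 20 msec every 10 s (0.1 Hz).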

Nav 1.5 = Nav 1.5 (Homo sapiens (Human), UniProt Q14524); assay: Nav 1.5 in vitro assay, IonWorks Quattro (IWQ) population patch-clamp; details: HEK 293 cells stably transfected with Nav 1.5; 26th pulse to -20 mV
Nav 1.7 [2] = biological target: T1, Nav 1.7; assay: Nav 1.7 in vitro assay, IonWorks Quattro (IWQ) population patch-clamp; details: HEK 293 cells stably transfected with Nav 1.7; 26th pulse to -20 mV

Sequence of Nav 1.5 (Q14524 whole entry): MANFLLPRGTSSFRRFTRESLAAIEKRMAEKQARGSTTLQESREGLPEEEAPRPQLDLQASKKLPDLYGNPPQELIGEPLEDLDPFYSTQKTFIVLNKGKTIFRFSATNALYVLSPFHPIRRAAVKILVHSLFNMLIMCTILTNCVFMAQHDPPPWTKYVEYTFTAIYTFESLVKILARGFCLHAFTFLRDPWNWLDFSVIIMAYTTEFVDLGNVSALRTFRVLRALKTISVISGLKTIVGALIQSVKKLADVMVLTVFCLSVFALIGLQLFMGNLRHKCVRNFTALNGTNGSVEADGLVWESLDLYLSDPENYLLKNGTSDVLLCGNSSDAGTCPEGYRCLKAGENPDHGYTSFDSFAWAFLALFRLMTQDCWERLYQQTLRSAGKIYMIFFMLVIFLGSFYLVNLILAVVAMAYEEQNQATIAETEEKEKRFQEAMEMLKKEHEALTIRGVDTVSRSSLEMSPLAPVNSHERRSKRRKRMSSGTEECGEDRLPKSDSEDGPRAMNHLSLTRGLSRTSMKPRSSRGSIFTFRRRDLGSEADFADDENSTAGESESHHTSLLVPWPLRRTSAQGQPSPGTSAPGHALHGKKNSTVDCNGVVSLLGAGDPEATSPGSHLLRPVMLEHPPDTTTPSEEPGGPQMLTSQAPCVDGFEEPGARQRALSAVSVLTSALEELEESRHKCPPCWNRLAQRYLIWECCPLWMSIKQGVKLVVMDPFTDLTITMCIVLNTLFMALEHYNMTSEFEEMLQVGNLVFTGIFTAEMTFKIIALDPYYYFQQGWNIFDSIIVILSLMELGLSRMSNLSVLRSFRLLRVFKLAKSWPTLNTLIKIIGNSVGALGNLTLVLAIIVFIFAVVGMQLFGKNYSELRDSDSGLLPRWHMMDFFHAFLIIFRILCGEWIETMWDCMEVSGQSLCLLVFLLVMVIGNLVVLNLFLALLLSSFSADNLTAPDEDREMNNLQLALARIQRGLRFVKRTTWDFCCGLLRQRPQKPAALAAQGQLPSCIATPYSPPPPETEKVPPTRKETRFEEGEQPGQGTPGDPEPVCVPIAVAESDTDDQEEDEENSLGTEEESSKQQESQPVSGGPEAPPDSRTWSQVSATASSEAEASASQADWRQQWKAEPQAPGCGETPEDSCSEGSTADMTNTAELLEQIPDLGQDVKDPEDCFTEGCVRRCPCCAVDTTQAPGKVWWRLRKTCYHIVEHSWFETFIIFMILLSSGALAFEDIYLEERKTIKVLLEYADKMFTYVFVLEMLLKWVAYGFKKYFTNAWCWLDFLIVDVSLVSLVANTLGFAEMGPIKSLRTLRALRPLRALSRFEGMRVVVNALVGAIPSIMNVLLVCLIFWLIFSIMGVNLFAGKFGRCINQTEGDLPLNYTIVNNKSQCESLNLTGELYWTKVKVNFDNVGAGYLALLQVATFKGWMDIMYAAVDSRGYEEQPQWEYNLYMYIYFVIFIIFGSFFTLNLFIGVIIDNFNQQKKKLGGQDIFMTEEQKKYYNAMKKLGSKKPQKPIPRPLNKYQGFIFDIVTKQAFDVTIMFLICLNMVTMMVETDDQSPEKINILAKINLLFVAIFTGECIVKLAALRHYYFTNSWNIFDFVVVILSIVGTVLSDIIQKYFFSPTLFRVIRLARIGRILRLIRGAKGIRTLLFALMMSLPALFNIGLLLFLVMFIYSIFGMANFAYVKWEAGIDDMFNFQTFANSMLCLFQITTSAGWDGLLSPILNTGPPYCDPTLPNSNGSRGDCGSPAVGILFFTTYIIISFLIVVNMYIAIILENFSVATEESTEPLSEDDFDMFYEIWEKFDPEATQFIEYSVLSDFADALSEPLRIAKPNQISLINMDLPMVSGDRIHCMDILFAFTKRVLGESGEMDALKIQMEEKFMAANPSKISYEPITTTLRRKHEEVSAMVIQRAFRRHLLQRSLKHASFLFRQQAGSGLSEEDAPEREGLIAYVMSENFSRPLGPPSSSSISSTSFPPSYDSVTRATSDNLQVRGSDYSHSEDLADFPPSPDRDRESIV
T1 sequence (Q15858 whole entry): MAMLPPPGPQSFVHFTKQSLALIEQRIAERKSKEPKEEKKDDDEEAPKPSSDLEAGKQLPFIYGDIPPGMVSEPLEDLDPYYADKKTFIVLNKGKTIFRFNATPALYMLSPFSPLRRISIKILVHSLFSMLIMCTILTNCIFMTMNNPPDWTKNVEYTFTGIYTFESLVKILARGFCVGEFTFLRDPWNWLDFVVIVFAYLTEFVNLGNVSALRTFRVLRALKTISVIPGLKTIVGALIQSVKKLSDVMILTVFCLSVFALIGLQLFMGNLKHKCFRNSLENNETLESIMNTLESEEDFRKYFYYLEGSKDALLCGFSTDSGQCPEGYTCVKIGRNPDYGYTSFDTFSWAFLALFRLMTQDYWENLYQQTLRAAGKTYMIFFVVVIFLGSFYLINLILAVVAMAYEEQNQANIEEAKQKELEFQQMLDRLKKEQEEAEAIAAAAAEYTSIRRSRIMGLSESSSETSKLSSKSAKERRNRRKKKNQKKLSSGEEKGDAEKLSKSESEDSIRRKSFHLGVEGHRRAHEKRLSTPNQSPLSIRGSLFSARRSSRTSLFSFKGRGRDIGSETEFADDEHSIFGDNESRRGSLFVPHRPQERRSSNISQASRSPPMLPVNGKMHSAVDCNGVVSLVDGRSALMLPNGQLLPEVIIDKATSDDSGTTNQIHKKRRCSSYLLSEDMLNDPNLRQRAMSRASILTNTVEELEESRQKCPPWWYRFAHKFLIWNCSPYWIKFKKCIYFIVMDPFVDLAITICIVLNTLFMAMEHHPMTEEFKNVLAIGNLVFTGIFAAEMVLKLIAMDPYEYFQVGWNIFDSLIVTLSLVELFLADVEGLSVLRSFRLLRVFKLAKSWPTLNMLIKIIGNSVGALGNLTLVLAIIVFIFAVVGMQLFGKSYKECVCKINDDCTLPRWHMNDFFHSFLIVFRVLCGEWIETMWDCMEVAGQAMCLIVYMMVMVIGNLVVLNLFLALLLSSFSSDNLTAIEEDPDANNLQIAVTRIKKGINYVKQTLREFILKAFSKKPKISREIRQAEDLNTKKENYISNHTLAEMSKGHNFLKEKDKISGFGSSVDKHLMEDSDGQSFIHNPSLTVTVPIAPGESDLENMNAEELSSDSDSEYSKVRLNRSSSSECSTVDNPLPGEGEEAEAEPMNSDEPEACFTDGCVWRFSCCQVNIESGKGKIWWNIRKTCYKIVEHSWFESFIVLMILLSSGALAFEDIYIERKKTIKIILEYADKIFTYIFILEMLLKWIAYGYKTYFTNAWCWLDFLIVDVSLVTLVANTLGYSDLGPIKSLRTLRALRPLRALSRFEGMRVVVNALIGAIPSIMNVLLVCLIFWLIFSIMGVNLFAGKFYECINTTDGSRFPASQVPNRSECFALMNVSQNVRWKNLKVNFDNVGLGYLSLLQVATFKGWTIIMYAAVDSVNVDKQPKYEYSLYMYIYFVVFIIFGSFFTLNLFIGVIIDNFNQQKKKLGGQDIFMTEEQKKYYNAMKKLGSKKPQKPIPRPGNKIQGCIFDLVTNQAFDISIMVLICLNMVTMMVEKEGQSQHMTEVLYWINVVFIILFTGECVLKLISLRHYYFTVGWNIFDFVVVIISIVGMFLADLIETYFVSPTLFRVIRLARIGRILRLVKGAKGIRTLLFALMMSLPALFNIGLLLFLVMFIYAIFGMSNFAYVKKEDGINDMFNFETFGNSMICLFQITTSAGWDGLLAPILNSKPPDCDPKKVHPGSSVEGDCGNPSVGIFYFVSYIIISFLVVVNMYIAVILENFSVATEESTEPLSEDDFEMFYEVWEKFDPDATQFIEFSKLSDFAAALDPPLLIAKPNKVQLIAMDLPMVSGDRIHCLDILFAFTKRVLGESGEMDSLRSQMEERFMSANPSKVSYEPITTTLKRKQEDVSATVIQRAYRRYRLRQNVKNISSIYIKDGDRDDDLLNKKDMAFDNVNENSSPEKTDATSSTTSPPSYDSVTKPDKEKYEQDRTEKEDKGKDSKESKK

O=S(=O)(Nc1ccccn1)c1ccc2c(c1)OCCN2c1ccc(C(F)(F)F)cc1Br [Example 60, 4-(2-Bromo-4-(Trifluoromethyl)Phenyl)-N-(Pyridin-2-Yl)-3,4-Dihydro-2H-Benzo[B][1,4]Oxazine-7-Sulfonamide]
inhibition at 4.9 µM (Nav 1.7 [1]): 24.4% | IC50 (Nav 1.5): > 10 µM | IC50 (Nav 1.7 [2]): 1.47 µM

O=S(=O)(Nc1cscn1)c1ccc2c(c1)OCCN2c1ccc(C(F)(F)F)cc1Br [Example 61, 4-(2-Bromo-4-(Trifluoromethyl)Phenyl)-N-(Thiazol-4-Yl)-3,4-Dihydro-2H-Benzo[B][1,4]Oxazine-7-Sulfonamide]
IC50 (Nav 1.7 [1]): 2.43 µM | IC50 (Nav 1.5): > 10 µM | IC50 (Nav 1.7 [2]): 0.679 µM

O=S(=O)(Nc1ccccn1)c1ccc2c(c1)OCCN2c1ccc(C(F)(F)F)cc1C1=CCNCC1 [Example 62, N-(Pyridin-2-Yl)-4-(2-(1,2,3,6-Tetrahydropyridin-4-Yl)-4-(Trifluoromethyl)Phenyl)-3,4-Dihydro-2H-Benzo[B][1,4]Oxazine-7-Sulfonamide]
IC50 (Nav 1.7 [1]): 0.282 µM | IC50 (Nav 1.5): > 10 µM | IC50 (Nav 1.7 [2]): 0.049 µM

O=S(=O)(Nc1cscn1)c1ccc2c(c1)OCCN2c1ccc(C(F)(F)F)cc1C1=CCNCC1 [Example 63, 4-(2-(1,2,3,6-Tetrahydropyridin-4-Yl)-4-(Trifluoromethyl)Phenyl)-N-(Thiazol-4-Yl)-3,4-Dihydro-2H-Benzo[B][1,4]Oxazine-7-Sulfonamide]
IC50 (Nav 1.7 [1]): 0.144 µM | IC50 (Nav 1.5): 2.67 µM | IC50 (Nav 1.7 [2]): 0.027 µM

[N-]=[N+]=Nc1ccc(N2CCOc3cc(S(=O)(=O)Nc4nccs4)ccc32)c(Br)c1 [Example 64, 4-(4-Azido-2-Bromophenyl)-N-(Thiazol-2-Yl)-3,4-Dihydro-2H-Benzo[B][1,4]Oxazine-7-Sulfonamide 2,2,2-Trifluoroacetate]
IC50 (Nav 1.7 [1]): 1.07 µM | IC50 (Nav 1.5): > 10 µM | IC50 (Nav 1.7 [2]): 0.418 µM

[N-]=[N+]=Nc1ccc(N2CCOc3cc(S(=O)(=O)Nc4nccs4)ccc32)c(C2=CCNCC2)c1 [Example 65, 4-(4-Azido-2-(1,2,3,6-Tetrahydropyridin-4-Yl)Phenyl)-N-(Thiazol-2-Yl)-3,4-Dihydro-2H-Benzo[B][1,4]Oxazine-7-Sulfonamide Bis(2,2,2-Trifluoroacetate)]
IC50 (Nav 1.7 [1]): 0.0244 µM | IC50 (Nav 1.5): 5.28 µM | IC50 (Nav 1.7 [2]): 0.024 µM

O=S(=O)(Nc1nccs1)c1ccc2c(c1)OCCN2c1ccc2ncccc2c1 [Example 66, 4-(Quinolin-6-Yl)-N-(Thiazol-2-Yl)-3,4-Dihydro-2H-Benzo[B][1,4]Oxazine-7-Sulfonamide 2,2,2-Trifluoroacetate]
inhibition at 4.9 µM (Nav 1.7 [1]): 22.8% | IC50 (Nav 1.5): > 10 µM | IC50 (Nav 1.7 [2]): 3.73 µM

Cc1ccc(Cl)c(N2CCOc3cc(S(=O)(=O)Nc4nccs4)ccc32)c1 [Example 67, 4-(2-Chloro-5-Methylphenyl)-N-(Thiazol-2-Yl)-3,4-Dihydro-2H-Benzo[B][1,4]Oxazine-7-Sulfonamide 2,2,2-Trifluoroacetate]
IC50 (Nav 1.7 [1]): 0.442 µM | IC50 (Nav 1.5): 5.33 µM | IC50 (Nav 1.7 [2]): 0.381 µM

O=S(=O)(Nc1nccs1)c1ccc2c(c1)OCCN2c1cccc2ccncc12 [Example 68, 4-(Isoquinolin-8-Yl)-N-(Thiazol-2-Yl)-3,4-Dihydro-2H-Benzo[B][1,4]Oxazine-7-Sulfonamide 2,2,2-Trifluoroacetate]
IC50 (Nav 1.7 [1]): 1.75 µM | IC50 (Nav 1.5): 4.83 µM | IC50 (Nav 1.7 [2]): 0.158 µM

O=S(=O)(Nc1nccs1)c1ccc2c(c1)OCCN2c1ccc2nccnc2c1 [Example 69, 4-(Quinoxalin-6-Yl)-N-(Thiazol-2-Yl)-3,4-Dihydro-2H-Benzo[B][1,4]Oxazine-7-Sulfonamide 2,2,2-Trifluoroacetate]
inhibition at 4.9 µM (Nav 1.7 [1]): 33.9% | IC50 (Nav 1.5): 4.44 µM | IC50 (Nav 1.7 [2]): 3.78 µM

O=S(=O)(Nc1nccs1)c1ccc2c(c1)OCCN2c1ccc2scnc2c1 [Example 70, 4-(Benzo[D]Thiazol-5-Yl)-N-(Thiazol-2-Yl)-3,4-Dihydro-2H-Benzo[B][1,4]Oxazine-7-Sulfonamide 2,2,2-Trifluoroacetate]
IC50 (Nav 1.7 [1]): 5.69 µM | IC50 (Nav 1.5): > 10 µM | IC50 (Nav 1.7 [2]): 0.638 µM

O=S(=O)(Nc1nccs1)c1ccc2c(c1)OCCN2c1ccc2ncsc2c1 [Example 71, 4-(Benzo[D]Thiazol-6-Yl)-N-(Thiazol-2-Yl)-3,4-Dihydro-2H-Benzo[B][1,4]Oxazine-7-Sulfonamide 2,2,2-Trifluoroacetate]
IC50 (Nav 1.7 [1]): 5.32 µM | IC50 (Nav 1.5): > 10 µM | IC50 (Nav 1.7 [2]): 0.605 µM

O=S(=O)(Nc1nccs1)c1ccc2c(c1)OCCN2c1ccc(Cl)c(Cl)c1 [Example 74, 4-(3,4-Dichlorophenyl)-N-(Thiazol-2-Yl)-3,4-Dihydro-2H-Benzo[B][1,4]Oxazine-7-Sulfonamide 2,2,2-Trifluoroacetate]
IC50 (Nav 1.7 [1]): 4.07 µM | IC50 (Nav 1.5): 6.08 µM | IC50 (Nav 1.7 [2]): 5.24 µM

Cc1cccc(N2CCOc3cc(S(=O)(=O)Nc4nccs4)ccc32)c1 [Example 75, N-(Thiazol-2-Yl)-4-(M-Tolyl)-3,4-Dihydro-2H-Benzo[B][1,4]Oxazine-7-Sulfonamide 2,2,2-Trifluoroacetate]
IC50 (Nav 1.7 [1]): 0.706 µM | IC50 (Nav 1.5): 7.37 µM | IC50 (Nav 1.7 [2]): 0.182 µM

N#Cc1ccc(N2CCOc3cc(S(=O)(=O)Nc4nccs4)ccc32)cc1 [Example 76, 4-(4-Cyanophenyl)-N-(Thiazol-2-Yl)-3,4-Dihydro-2H-Benzo[B][1,4]Oxazine-7-Sulfonamide 2,2,2-Trifluoroacetate]
IC50 (Nav 1.7 [1]): 9.23 µM | IC50 (Nav 1.5): 6.03 µM | IC50 (Nav 1.7 [2]): 0.871 µM

Cc1c(F)cccc1N1CCOc2cc(S(=O)(=O)Nc3nccs3)ccc21 [Example 78, 4-(3-Fluoro-2-Methylphenyl)-N-(Thiazol-2-Yl)-3,4-Dihydro-2H-Benzo[B][1,4]Oxazine-7-Sulfonamide 2,2,2-Trifluoroacetate]
IC50 (Nav 1.7 [1]): 2.22 µM | IC50 (Nav 1.5): > 10 µM | IC50 (Nav 1.7 [2]): 0.249 µM

Cc1ccc(F)cc1N1CCOc2cc(S(=O)(=O)Nc3nccs3)ccc21 [Example 79, 4-(5-Fluoro-2-Methylphenyl)-N-(Thiazol-2-Yl)-3,4-Dihydro-2H-Benzo[B][1,4]Oxazine-7-Sulfonamide 2,2,2-Trifluoroacetate]
IC50 (Nav 1.7 [1]): 1.18 µM | IC50 (Nav 1.5): > 10 µM | IC50 (Nav 1.7 [2]): 0.216 µM

Cc1ccc(F)c(N2CCOc3cc(S(=O)(=O)Nc4nccs4)ccc32)c1 [Example 80, 4-(2-Fluoro-5-Methylphenyl)-N-(Thiazol-2-Yl)-3,4-Dihydro-2H-Benzo[B][1,4]Oxazine-7-Sulfonamide 2,2,2-Trifluoroacetate]
IC50 (Nav 1.7 [1]): 0.34 µM | IC50 (Nav 1.5): 5.64 µM | IC50 (Nav 1.7 [2]): 0.126 µM

Cc1cc(N2CCOc3cc(S(=O)(=O)Nc4nccs4)ccc32)ccc1F [Example 81, 4-(4-Fluoro-3-Methylphenyl)-N-(Thiazol-2-Yl)-3,4-Dihydro-2H-Benzo[B][1,4]Oxazine-7-Sulfonamide 2,2,2-Trifluoroacetate]
IC50 (Nav 1.7 [1]): 1.65 µM | IC50 (Nav 1.5): > 10 µM | IC50 (Nav 1.7 [2]): 0.288 µM

O=S(=O)(Nc1nccs1)c1ccc2c(c1)OCCN2c1ccc(F)c(F)c1 [Example 84, 4-(3,4-Difluorophenyl)-N-(Thiazol-2-Yl)-3,4-Dihydro-2H-Benzo[B][1,4]Oxazine-7-Sulfonamide 2,2,2-Trifluoroacetate]
IC50 (Nav 1.7 [1]): 3.04 µM | IC50 (Nav 1.5): 3.81 µM | IC50 (Nav 1.7 [2]): 0.326 µM

O=S(=O)(Nc1ncccn1)c1ccc2c(c1)OCCN2c1ccc(C(F)(F)F)cc1C1=CCNCC1 [Example 86, N-(Pyrimidin-2-Yl)-4-(2-(1,2,3,6-Tetrahydropyridin-4-Yl)-4-(Trifluoromethyl)Phenyl)-3,4-Dihydro-2H-Benzo[B][1,4]Oxazine-7-Sulfonamide]
IC50 (Nav 1.7 [1]): 0.851 µM | IC50 (Nav 1.5): 2.26 µM | IC50 (Nav 1.7 [2]): 0.32 µM

O=S(=O)(Nc1cccnn1)c1ccc2c(c1)OCCN2c1ccc(C(F)(F)F)cc1C1=CCNCC1 [Example 87, N-(Pyridazin-3-Yl)-4-(2-(1,2,3,6-Tetrahydropyridin-4-Yl)-4-(Trifluoromethyl)Phenyl)-3,4-Dihydro-2H-Benzo[B][1,4]Oxazine-7-Sulfonamide]
IC50 (Nav 1.7 [1]): 0.381 µM | IC50 (Nav 1.5): > 10 µM | IC50 (Nav 1.7 [2]): 0.026 µM

O=S(=O)(Nc1cnccn1)c1ccc2c(c1)OCCN2c1ccc(C(F)(F)F)cc1C1=CCNCC1 [Example 88, N-(Pyrazin-2-Yl)-4-(2-(1,2,3,6-Tetrahydropyridin-4-Yl)-4-(Trifluoromethyl)Phenyl)-3,4-Dihydro-2H-Benzo[B][1,4]Oxazine-7-Sulfonamide]
IC50 (Nav 1.7 [1]): 0.737 µM | IC50 (Nav 1.5): > 10 µM | IC50 (Nav 1.7 [2]): 0.224 µM

N#Cc1cc(C(F)(F)F)ccc1N1CCOc2cc(S(=O)(=O)Nc3ccncn3)ccc21 [Example 89, 4-(2-Cyano-4-(Trifluoromethyl)Phenyl)-N-(Pyrimidin-4-Yl)-3,4-Dihydro-2H-Benzo[B][1,4]Oxazine-7-Sulfonamide]
IC50 (Nav 1.7 [1]): 0.464 µM | IC50 (Nav 1.5): 1.14 µM | IC50 (Nav 1.7 [2]): 0.0285 µM

N#Cc1cc(C(F)(F)F)ccc1N1CCOc2cc(S(=O)(=O)Nc3ncco3)ccc21 [Example 90, 4-(2-Cyano-4-(Trifluoromethyl)Phenyl)-N-(Oxazol-2-Yl)-3,4-Dihydro-2H-Benzo[B][1,4]Oxazine-7-Sulfonamide]
IC50 (Nav 1.7 [1]): 2.59 µM | IC50 (Nav 1.5): > 10 µM | IC50 (Nav 1.7 [2]): 0.924 µM

N#Cc1cc(C(F)(F)F)ccc1N1CCOc2cc(S(=O)(=O)Nc3ccno3)ccc21 [Example 91, 4-(2-Cyano-4-(Trifluoromethyl)Phenyl)-N-(Isoxazol-5-Yl)-3,4-Dihydro-2H-Benzo[B][1,4]Oxazine-7-Sulfonamide]
IC50 (Nav 1.7 [1]): 9.21 µM | IC50 (Nav 1.5): > 10 µM | IC50 (Nav 1.7 [2]): 3.64 µM

O=S(=O)(Nc1ccncn1)c1ccc2c(c1)OCCN2c1ncc(C(F)(F)F)cc1Cl [Example 99, 4-(3-Chloro-5-(Trifluoromethyl)Pyridin-2-Yl)-N-(Pyrimidin-4-Yl)-3,4-Dihydro-2H-Benzo[B][1,4]Oxazine-7-Sulfonamide]
IC50 (Nav 1.7 [1]): 4.97 µM | IC50 (Nav 1.5): > 10 µM | IC50 (Nav 1.7 [2]): 0.327 µM
